Results as given in patent US11299501B2 (BRISTOL-MYERS SQUIBB COMPANY, priority 2017, dated 2022).

What was measured:
Format in all cases: cell-based
human TLR7 = molecular target: T1, human TLR7 (Homo sapiens, UniProt Q9NYK1); experiment: TLR7 inhibition reporter assay (HEK-Blue SEAP); conditions: cells overexpressing human TLR7, SEAP reporter, stimulated with gardiquimod 7.5 μM, 22 hour incubation
T1 construct: host or cells: HEK-Blue cells
T1 sequence (Q9NYK1 27-1049): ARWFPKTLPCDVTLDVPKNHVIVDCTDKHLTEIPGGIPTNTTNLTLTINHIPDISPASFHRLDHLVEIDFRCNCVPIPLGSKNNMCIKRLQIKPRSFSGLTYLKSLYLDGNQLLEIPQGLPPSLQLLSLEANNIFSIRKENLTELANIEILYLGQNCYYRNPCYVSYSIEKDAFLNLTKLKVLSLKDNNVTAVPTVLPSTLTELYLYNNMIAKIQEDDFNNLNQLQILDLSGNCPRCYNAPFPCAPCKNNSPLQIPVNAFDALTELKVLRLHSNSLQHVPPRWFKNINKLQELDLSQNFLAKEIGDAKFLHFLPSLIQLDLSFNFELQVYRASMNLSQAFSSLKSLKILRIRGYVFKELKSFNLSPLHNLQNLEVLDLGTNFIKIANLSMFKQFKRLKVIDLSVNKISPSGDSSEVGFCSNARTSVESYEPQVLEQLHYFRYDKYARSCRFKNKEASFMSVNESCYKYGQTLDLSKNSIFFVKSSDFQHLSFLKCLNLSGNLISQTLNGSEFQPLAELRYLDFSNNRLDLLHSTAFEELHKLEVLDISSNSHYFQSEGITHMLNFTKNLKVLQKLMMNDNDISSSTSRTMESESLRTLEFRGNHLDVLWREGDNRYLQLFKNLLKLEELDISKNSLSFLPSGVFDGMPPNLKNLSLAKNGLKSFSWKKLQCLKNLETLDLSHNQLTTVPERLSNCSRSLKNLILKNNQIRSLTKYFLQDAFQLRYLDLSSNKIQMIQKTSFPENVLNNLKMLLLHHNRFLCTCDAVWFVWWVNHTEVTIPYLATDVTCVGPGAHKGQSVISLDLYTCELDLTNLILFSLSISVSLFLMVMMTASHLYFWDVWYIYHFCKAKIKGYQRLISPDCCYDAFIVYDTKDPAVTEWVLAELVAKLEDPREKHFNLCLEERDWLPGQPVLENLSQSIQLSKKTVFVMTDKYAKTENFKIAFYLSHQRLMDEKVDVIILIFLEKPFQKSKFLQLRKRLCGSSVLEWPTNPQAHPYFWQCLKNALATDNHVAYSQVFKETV
Protocol: (§1) TLR7/8/9 Inhibition Reporter Assays
(§2) […] (Invivogen) overexpressing human TLR7, TLR8 or TLR9 receptors were used for screening inhibitors of these receptors using an inducible SEAP (secreted embryonic alkaline phosphatase) reporter gene under the control of the IFN-β minimal promoter fused to five NF-κB and AP-1-binding sites. Briefly, cells are seeded into Greiner 384 well plates (15000 cells per well for TLR7, 20,000 for TLR8 and 25,000 for TLR9) and then treated with test compounds in DMSO to yield a final dose response concentration range of 0.05 nM-50 μM. After a 30 minute compound pre-treatment at room temperature, the cells are then stimulated with a TLR7 ligand (gardiquimod at a final concentration of 7.5 μM). TLR8 ligand (R848 at a final concentration of 15.9 μM) or TLR9 ligand (ODN2006 at a final concentration of 5 nM) to activate NF-κB and AP-1 which induce the production of SEAP. After a 22 hour incubation at 37° C., 5% CO2, SEAP levels are determined with the addition of HEK-Blue™ Detection reagent (Invivogen), a cell culture medium that allows for detection of SEAP, according to manufacturer's specifications. The percent inhibition is determined as the % reduction in the HEK-Blue signal present in wells treated with agonist plus DMSO alone compared to wells treated with a known inhibitor.

human TLR8 = molecular target: T2, human TLR8 (Homo sapiens, UniProt Q9NR97); experiment: TLR8 inhibition reporter assay (HEK-Blue SEAP); conditions: cells overexpressing human TLR8, SEAP reporter, stimulated with R848 15.9 μM, 22 hour incubation
T2 construct: host or cells: HEK-Blue cells
T2 sequence (Q9NR97 27-1041): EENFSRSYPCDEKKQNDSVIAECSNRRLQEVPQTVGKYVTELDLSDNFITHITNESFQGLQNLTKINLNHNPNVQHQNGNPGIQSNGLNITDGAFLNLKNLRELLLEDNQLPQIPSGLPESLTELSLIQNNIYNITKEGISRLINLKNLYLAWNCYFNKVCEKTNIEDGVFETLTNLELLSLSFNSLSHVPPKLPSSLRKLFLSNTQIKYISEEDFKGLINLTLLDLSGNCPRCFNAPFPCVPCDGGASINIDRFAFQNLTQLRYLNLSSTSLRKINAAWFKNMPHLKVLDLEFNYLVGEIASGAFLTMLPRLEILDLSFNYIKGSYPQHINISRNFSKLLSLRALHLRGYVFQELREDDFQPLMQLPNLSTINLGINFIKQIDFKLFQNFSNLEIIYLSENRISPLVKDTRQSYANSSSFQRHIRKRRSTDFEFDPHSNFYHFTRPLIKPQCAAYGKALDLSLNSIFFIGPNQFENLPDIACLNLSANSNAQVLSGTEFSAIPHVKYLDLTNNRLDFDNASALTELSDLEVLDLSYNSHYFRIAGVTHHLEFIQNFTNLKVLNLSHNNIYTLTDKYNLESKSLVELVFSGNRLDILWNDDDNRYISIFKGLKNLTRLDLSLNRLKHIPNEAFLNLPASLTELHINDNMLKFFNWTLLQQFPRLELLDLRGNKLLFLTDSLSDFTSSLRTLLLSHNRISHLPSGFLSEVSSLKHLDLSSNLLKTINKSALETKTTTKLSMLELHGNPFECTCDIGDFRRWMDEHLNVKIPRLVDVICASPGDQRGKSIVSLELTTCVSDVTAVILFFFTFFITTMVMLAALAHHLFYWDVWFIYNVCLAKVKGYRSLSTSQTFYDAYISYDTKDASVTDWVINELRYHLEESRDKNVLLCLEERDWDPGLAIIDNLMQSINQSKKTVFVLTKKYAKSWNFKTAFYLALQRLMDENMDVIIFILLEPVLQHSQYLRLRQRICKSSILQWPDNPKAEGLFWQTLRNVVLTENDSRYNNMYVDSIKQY
Protocol: as §1, §2

human TLR9 = molecular target: T3, human TLR9 (Homo sapiens, UniProt Q9NR96); experiment: TLR9 inhibition reporter assay (HEK-Blue SEAP); conditions: cells overexpressing human TLR9, SEAP reporter, stimulated with ODN2006 5 nM, 22 hour incubation
T3 construct: host or cells: HEK-Blue cells
T3 sequence (Q9NR96 26-1032): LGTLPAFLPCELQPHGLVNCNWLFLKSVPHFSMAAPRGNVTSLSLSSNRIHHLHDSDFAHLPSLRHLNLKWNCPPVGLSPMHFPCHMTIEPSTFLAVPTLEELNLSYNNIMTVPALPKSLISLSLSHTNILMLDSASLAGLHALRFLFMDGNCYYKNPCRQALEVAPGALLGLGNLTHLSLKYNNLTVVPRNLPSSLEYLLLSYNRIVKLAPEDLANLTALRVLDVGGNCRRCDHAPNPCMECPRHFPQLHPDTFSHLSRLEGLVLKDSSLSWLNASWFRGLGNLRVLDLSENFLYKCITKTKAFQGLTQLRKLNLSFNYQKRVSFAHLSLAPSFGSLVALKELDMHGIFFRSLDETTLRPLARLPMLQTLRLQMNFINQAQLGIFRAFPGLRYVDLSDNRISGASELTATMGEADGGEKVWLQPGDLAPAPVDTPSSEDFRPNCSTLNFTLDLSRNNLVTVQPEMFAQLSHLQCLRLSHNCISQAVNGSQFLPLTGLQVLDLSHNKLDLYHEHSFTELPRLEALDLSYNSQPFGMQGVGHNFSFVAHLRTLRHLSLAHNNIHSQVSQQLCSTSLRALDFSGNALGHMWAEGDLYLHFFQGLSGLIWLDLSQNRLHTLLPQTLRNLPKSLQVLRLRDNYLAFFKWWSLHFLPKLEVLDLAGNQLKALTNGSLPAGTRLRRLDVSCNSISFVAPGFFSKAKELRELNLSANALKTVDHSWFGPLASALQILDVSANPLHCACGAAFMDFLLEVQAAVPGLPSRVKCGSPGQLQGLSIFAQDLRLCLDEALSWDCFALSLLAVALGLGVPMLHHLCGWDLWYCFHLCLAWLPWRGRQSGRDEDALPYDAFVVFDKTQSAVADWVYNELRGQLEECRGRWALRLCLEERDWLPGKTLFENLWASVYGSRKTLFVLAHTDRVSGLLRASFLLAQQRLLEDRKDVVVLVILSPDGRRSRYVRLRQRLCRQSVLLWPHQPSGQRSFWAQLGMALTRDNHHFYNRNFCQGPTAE
Protocol: as §1, §2

Structure (SMILES): CCc1c(-c2ccc(OC)c(OC)c2)[nH]c2nnc(C3CCNCC3)cc12 [Example 1, 6-(3,4-dimethoxyphenyl)-5-ethyl-3-(piperidin-4-yl)-7H-pyrrolo[2,3-c]pyridazine]
- IC50 (human TLR7): 100 to 1000 nM
- IC50 (human TLR8): 1000 to 50000 nM
- IC50 (human TLR9): 100 to 1000 nM

Structure (SMILES): CCc1c(-c2ccc(OC)c(OC)c2)[nH]c2nnc(C3CCN(C4CCN(C(C)C)CC4)CC3)cc12 [Example 2, 6-(3,4-dimethoxyphenyl)-5-ethyl-3-(1′-isopropyl-[1,4′-bipiperidin]-4-yl)-7H-pyrrolo[2,3-c]pyridazine]
- IC50 (human TLR7): 100 to 1000 nM
- IC50 (human TLR8): 100 to 1000 nM
- IC50 (human TLR9): 100 to 1000 nM

Structure (SMILES): CCc1c(-c2ccc(OC)c(OC)c2)[nH]c2ncc(C3CCNCC3)nc12 [Example 3, 6-(3,4-dimethoxyphenyl)-7-ethyl-2-(piperidin-4-yl)-5H-pyrrolo[2,3-b]pyrazine]
- IC50 (human TLR7): 100 to 1000 nM
- IC50 (human TLR8): 100 to 1000 nM
- IC50 (human TLR9): 100 to 1000 nM

Structure (SMILES): CCc1c(-c2ccc(OC)c(OC)c2)[nH]c2ncc(C3CCN(C(=O)CN(C)C)CC3)nc12 [Example 4, 1-(4-(6-(3,4-dimethoxypbenyl)-7-ethyl-5H-pyrrolo[2,3-b]pyrazin-2-yl)piperidin-1-yl)-2-(dimethylamino)ethanone]
- IC50 (human TLR7): 100 to 1000 nM
- IC50 (human TLR8): 100 to 1000 nM
- IC50 (human TLR9): 1000 to 50000 nM

Structure (SMILES): CCc1c(-c2ccc(OC)c(OC)c2)[nH]c2ncc(C3CCN(C4CCN(C(C)C)CC4)CC3)nc12 [Example 5, 6-(3,4-ditnethoxyphenyl)-7-ethyl-2-(1′-isopropyl-[1,4′-bipiperidin]-4-yl)-5H-pyrrolo[2,3-b]pyrazine]
- IC50 (human TLR7): < 100 nM
- IC50 (human TLR8): 100 to 1000 nM
- IC50 (human TLR9): 100 to 1000 nM

Structure (SMILES): COc1ccc(-c2[nH]c3cnc(C4CCN(C5CCN(CC(C)C)CC5)CC4)nc3c2C)cc1OC [Example 6, 6-(3,4-dimethoxyphenyl)-2-(1′-isobutyl-[1,4′-bipiperidin]-4-yl)-7-methyl-5H-pyrrolo[3,2-d]pyrimidine]
- IC50 (human TLR7): 100 to 1000 nM
- IC50 (human TLR8): 100 to 1000 nM
- IC50 (human TLR9): 100 to 1000 nM

Structure (SMILES): Cc1cc(-c2[nH]c3cnc(C4CCNCC4)nc3c2C(C)C)cn(C)c1=O [Example 7, 5-(7-isopropyl-2-(piperidin-4-yl)-5H-pyrrolo[3,2-d]pyrimidin-6-yl)-1,3-dimethylpyridin-2(1H)-one]
- IC50 (human TLR7): < 100 nM
- IC50 (human TLR8): 100 to 1000 nM
- IC50 (human TLR9): 1000 to 50000 nM

Structure (SMILES): Cc1cc(-c2[nH]c3cnc(C4CCN(C5COC5)CC4)nc3c2C(C)C)cn(C)c1=O [Example 8, 5-(7-isopropyl-2-(1-(oxetan-3-yl)piperidin-4-yl)-5H-pyrrolo[3,2-d]pyrimidin-6-yl)-1,3-dimethylpyridin-2(1H)-one]
- IC50 (human TLR7): < 100 nM
- IC50 (human TLR8): < 100 nM
- IC50 (human TLR9): 1000 to 50000 nM

Structure (SMILES): CNC(=O)CN1CCC(c2ncc3[nH]c(-c4cn5ncnc5c(C)c4C)c(C(C)C)c3n2)CC1 [Example 9, 2-(4-(6-(7,8-dimethyl-[1,2,4]triazolo[1,5-a]pyridin-6-yl)-7-isopropyl-5H-pyrrolo[3,2-d]pyrimidin-2-yl)piperidin-1-yl)-N-methylacetamide]
- IC50 (human TLR7): < 100 nM
- IC50 (human TLR8): < 100 nM
- IC50 (human TLR9): 1000 to 50000 nM

Structure (SMILES): Cc1c(-c2[nH]c3cnc(C4CCN(CC(=O)N(C)C)CC4)nc3c2C(C)C)cn2ncnc2c1C [Example 10, 2-(4-(6-(7,8-dimethyl-[1,2,4]triazolo[1,5-a]pyrimidin-6-yl)-7-isopropyl-5H-pyrrolo[3,2-d]pyrimidin-2-yl)piperidin-1-yl)-N,N-dimethylacetantide]
- IC50 (human TLR7): < 100 nM
- IC50 (human TLR8): < 100 nM
- IC50 (human TLR9): 1000 to 50000 nM

Structure (SMILES): COc1cc(-c2[nH]c3cnc(C4CCN(C(=O)CN(C)C)CC4)nc3c2C(C)C)cn2ncnc12 [Example 11, 2-(dirnethylamino)-1-(4-(7-isopropyl-6-(8-methoxy-[1,2,4]triazolo[1,5-a]pyridin-6-yl)-5H-pyrrolo[3,2-d]pyrimidin-2-yl)piperidin-1-yl)ethan-1-one]
- IC50 (human TLR7): < 100 nM
- IC50 (human TLR8): < 100 nM
- IC50 (human TLR9): 1000 to 50000 nM

Structure (SMILES): Cc1cc(-c2[nH]c3cnc(C4CCN(C5CCOC5)CC4)nc3c2C(C)C)cn(C)c1=O (stereo not drawn) [Example 12, 5-(7-isopropyl-2-(1-(tetrahydrofuran-3-yl)piperidin-4-yl)-5H-pyrrolo[3,2-d]pyrimidin-6-yl)-1,3-dirnethylpyridin-2(1H)-one]
- IC50 (human TLR7): < 100 nM
- IC50 (human TLR8): < 100 nM
- IC50 (human TLR9): 1000 to 50000 nM
